Experiments:
[1] = tested on: facial skin of a human subject; assay: Topical application of aqueous solution to facial skin of a human subject before bedtime
Protocol: Topical Application of an Aqueous Solution of Vitamin C. A one gram tablet of Vitamin C (Ascorbic acid; GNC Brand, GNC, Inc.) was dissolved to completion in 1 tablespoon of water. The resulting solution was applied to the facial skin of a human subject immediately before bedtime.
Direct Comparisons of Aqueous Vitamin C Solution to Aqueous Vitamin C Solutions Containing Additional Ingredients. Several direct comparisons were performed to determine whether the addition of additional components could improve the results observed with Vitamin C alone. In the first of these tests, an aqueous solution comprising Vitamin C alone (3 g) was applied to one side of the subject's face immediately before bedtime, while an aqueous solution comprising 3 g of Vitamin C and 600 mg of N-acetyl-cysteine (GNC, Inc.) was applied to the other half of the subject's face at the same time.
A second comparison was then performed. In this study, an aqueous solution comprising Vitamin C (3 g) and Vitamin B5 (500 mg, obtained from GNC, Inc.) was applied to one side of the subject's face immediately before bedtime, while an aqueous solution comprising 3 g of Vitamin C, 600 mg of N-acetyl-cysteine and 10 mg zinc (GNC, Inc.) was applied to the other half of the subject's face at the same time.
Tablets containing 3 g of Vitamin C, 100 mg of Vitamin B1, 500 mg of Vitamin B5 and 500 mg of N-acetyl-cysteine, all obtained from obtained from GNC, Inc., were ground into a powder and mixed together. The mixture was then added to one tablespoon of water and allowed to dissolve to completion, which took approximately 10 hrs. The resulting solution was applied to the facial skin of a human subject immediately before bedtime.
Optimization of ranges for each of the components was determined. For example, the amount of Vitamin C present in the composition described above in Example 2 was varied from 0 g to 5 g.
In an attempt to reduce the slight irritation caused by application of the anti-aging skin care composition and to enhance its effects on fine lines and wrinkles, 100 mg of lipoic acid was added to the anti-aging skin care composition comprising 3 g of Vitamin C, 100 mg of Vitamin B1, 500 mg of Vitamin B5 and 500 mg of N-acetyl-cysteine. […] The resulting solution was again applied to the facial skin of a human subject immediately before bedtime.

[2] = Miscibility of Vitamin E with the aqueous Vitamin C solution; format: physicochemical; conditions: oils and powders containing Vitamin E
Protocol: Addition of Vitamin E Prevented by Poor Solubility. […] Thus, no further studies of the effects of the addition of Vitamin E to the various anti-aging skin care compositions described herein were performed.

Row | redness or burning of the facial skin upon waking ([1]; after approximately 6-8 hrs of sleep) | sensation upon initial contact with the facial skin ([1]; immediately after application, before the solution dried) | Molecule | appearance of the facial skin upon waking ([1]; after approximately 6-8 hrs of sleep, overnight application) | redness and irritation following subsequent applications ([1]; subsequent applications, dose of Vitamin C increased to 2 g and up to 5 g) | miscibility with the aqueous solution containing Vitamin C [2]
1 | slight redness of the facial skin | slight burning sensation | O=C1O[C@H]([C@@H](O)CO)C(O)=C1O [Vitamin C, Ascorbic acid] | noticeably improved | subsided greatly | –
2 | – | – | Vitamin E | – | – | neither oils nor powders containing Vitamin E were miscible

— patent US20030095933A1, “Anti-aging skin care composition and uses thereof” (priority 2001, published 2003)
